Read-outs that look alike come from different tables or passages of the source.
Experiments:
PI3K (p110α/p85α) = biological target: T1, PI3K (p110α/p85α) (Homo sapiens, UniProt P42336); experiment: PI3K activity assay (ADP Hunter Plus); assay type: biochemical
T1 construct: purchased Carna Biosciences 07CBS-0402A
Protocol: The kinase activity was measured by using the commercial ADP Hunter™ Plus assay available from DiscoveRx (#33-016), which is a homogeneous assay to measure the accumulation of ADP, a universal product of kinase activity. […] Reaction was carried out for 1 hour at 25° C. Reagent A and B were sequentially added to the wells and plates were incubated for 30 min at 37° C. Fluorescence counts were read in a Victor instrument (Perkin Elmer) with the recommended settings (544 and 580 nm as excitation and emission wavelengths, respectively). Values were normalized against the control activity included for each enzyme (i.e., 100% PI3 kinase activity, without compound). These values were plotted against the inhibitor concentration and were fit to a sigmoid dose-response curve by using the Graphad software.

mTOR = biological target: T2, mTOR (Homo sapiens, UniProt P42345); experiment: mTOR assay (LanthaScreen kinase activity assay); assay type: biochemical
T2 construct: purchased Invitrogen PV4754
T2 sequence (P42345 1360-2549 limits assumed): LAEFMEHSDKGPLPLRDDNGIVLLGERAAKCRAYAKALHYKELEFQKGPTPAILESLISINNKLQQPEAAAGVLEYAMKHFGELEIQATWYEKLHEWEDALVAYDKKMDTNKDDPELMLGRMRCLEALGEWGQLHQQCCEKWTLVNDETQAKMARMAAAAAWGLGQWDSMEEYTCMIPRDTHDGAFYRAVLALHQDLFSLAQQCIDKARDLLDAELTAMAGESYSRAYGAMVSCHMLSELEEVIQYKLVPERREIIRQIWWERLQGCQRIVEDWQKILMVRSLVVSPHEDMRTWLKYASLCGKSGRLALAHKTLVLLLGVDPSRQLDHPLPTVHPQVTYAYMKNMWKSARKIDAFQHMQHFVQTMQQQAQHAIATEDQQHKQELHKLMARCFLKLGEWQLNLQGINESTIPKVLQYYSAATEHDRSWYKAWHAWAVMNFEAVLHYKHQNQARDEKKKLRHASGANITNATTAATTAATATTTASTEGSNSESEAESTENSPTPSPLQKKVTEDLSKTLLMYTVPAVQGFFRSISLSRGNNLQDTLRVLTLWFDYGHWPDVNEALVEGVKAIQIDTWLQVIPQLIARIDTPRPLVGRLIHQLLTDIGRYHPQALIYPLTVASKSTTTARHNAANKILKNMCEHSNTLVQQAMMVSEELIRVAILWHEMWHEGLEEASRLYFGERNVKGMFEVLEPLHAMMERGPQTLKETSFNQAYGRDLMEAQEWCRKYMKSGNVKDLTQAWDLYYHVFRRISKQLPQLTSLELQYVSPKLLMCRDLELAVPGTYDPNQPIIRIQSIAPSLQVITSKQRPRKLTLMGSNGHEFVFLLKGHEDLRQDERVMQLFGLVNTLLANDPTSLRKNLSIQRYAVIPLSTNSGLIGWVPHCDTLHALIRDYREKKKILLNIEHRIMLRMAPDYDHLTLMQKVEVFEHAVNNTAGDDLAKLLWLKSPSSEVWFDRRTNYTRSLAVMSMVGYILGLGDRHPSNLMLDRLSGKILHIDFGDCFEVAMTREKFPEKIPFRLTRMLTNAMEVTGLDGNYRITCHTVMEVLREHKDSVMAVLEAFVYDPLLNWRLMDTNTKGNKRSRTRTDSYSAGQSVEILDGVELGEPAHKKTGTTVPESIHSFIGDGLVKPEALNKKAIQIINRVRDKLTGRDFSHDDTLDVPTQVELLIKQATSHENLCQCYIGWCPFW
Protocol: The enzymatic mTOR activity was measured using a LanthaScreen™ kinase activity assay (Invitrogen). The enzyme was purchased from Invitrogen (PV4754), as well as the GFP-labeled substrate (4EBP1-GFP; PV4759) and the Tb-anti-p4EBP1(pThr46) antibody (PV4757). The assay was performed in 50 mM HEPES buffer, pH 7.5, containing 1.5 mM MnCl2, 10 mM MgCl2, 1 mM EGTA, 2.5 mM DTT and 0.01% Tween-20. The concentration of the assay components were the following: 0.24 nM mTOR kinase, 400 nM 4EBP1-GFP, […] and serial dilutions of the compound (inhibitor) to be evaluated. After 1 h incubation at room temperature, 20 mM EDTA was used to stop the reaction and terbium-labeled antibody (4 nM) added to detect phosphorylated product. The antibody associates with the phosphorylated product resulting in an increased TR-FRET value. The TR-FRET value (a dimensionless number) was calculated as the ratio of the acceptor signal (GFP, emission at 520 nm) to the donor signal (terbium, emission at 495 nm). Values were plotted against the inhibitor concentration and fitted to a sigmoid dose-response curve using GraphPad software.

PIM-1 = biological target: T3, PIM-1 (Homo sapiens, UniProt P11309); experiment: PIM-1 biochemical assay (ADP Hunter); details: PIM1
T3 construct: histidine tag (C); made in house
T3 sequence (P11309 whole entry): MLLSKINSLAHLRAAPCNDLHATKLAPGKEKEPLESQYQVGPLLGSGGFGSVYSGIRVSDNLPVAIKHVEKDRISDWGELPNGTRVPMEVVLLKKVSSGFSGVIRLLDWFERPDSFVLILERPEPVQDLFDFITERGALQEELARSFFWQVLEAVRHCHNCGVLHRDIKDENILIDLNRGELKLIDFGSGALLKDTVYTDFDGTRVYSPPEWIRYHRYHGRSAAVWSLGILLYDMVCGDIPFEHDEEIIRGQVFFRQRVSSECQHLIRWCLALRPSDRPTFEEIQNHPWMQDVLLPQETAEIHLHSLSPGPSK
Text: The biochemical assay to measure PIM-1 activity relies on the ADP Hunter assay kit (DiscoveRx Corp., Cat. #90-0077), that determines the amount of ADP as direct product of the kinase enzyme activity.
The enzyme has been expressed and purified in-house as a recombinant human protein with a C-terminal histidine tag. The protein is active and stable.
Assay conditions were as indicated by the kit manufacturers with the following adaptations for the kinase activity step: • Kinase assay buffer and assay volume stay as recommended (15 mM HEPES, pH 7.4, 20 mM NaCl, 1 mM EGTA, 0.02% Tween 20, 10 mM MgCl2 and 0.1 mg/ml bovine γ-globulins/75 μl assay volume) • Incubation time and temperature: 60 min at 30° C. • PIM-1 concentration: 50 pg/μl • ATP concentration: 100 μM • PIM-1 substrate peptide: PIMtide ([…]) (SEQIDNO. 1) • Peptide concentration: 60 μM • Positive control for kinase activity inhibition: 1-10 μM Staurosporine • DMSO concentration have to stay below 2% during the kinase reaction
Assays were performed in either 96 or 384-well plates. The final outcome of the coupled reactions provided by the kit is the release of the fluorescent product Resorufin and has been measured with a multilabel HTS counter VICTOR V (PerkinElmer) using an excitation filter at 544 nm and an emission filter at 580 nm.

[1] = read-out: PI3K alpha activity, IC50 (semi-quantitative class)
[2] = read-out: PI3K alpha actual IC50 (in parentheses)
[3] = read-out: mTOR activity, IC50 (semi-quantitative class)
[4] = read-out: mTOR actual IC50 (in parentheses)
[5] = read-out: PIM-1 activity, IC50 (semi-quantitative class)
[6] = read-out: PIM-1 actual IC50 (in parentheses)

T1 sequence (P42336 whole entry): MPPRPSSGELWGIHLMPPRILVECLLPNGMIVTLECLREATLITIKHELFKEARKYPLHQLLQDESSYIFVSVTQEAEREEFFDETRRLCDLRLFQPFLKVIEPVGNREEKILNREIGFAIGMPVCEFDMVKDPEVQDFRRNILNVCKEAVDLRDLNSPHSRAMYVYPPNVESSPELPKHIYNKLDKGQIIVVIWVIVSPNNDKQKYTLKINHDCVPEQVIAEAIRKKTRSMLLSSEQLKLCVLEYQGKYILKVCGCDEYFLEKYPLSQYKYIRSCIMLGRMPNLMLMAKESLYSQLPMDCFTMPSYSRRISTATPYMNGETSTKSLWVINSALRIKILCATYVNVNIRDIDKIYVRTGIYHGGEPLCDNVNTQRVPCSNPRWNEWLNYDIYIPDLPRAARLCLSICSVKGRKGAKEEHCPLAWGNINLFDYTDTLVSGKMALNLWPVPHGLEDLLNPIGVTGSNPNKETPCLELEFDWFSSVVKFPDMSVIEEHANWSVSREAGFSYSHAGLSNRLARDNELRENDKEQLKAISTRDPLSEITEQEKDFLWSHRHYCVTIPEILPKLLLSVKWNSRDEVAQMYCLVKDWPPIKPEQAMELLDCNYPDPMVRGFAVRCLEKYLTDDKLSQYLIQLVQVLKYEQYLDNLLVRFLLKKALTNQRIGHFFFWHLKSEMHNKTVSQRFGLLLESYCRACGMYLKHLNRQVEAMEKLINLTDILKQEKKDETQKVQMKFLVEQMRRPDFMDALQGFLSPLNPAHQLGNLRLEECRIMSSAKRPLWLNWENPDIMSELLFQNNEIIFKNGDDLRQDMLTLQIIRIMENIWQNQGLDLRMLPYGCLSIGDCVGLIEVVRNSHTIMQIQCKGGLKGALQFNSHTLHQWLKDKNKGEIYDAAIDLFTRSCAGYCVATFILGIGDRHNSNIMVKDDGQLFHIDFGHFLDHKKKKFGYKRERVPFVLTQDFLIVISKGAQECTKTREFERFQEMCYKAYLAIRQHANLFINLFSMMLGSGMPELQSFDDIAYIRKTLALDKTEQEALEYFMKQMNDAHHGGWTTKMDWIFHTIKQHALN
T1 sequence (P27986 whole entry partner): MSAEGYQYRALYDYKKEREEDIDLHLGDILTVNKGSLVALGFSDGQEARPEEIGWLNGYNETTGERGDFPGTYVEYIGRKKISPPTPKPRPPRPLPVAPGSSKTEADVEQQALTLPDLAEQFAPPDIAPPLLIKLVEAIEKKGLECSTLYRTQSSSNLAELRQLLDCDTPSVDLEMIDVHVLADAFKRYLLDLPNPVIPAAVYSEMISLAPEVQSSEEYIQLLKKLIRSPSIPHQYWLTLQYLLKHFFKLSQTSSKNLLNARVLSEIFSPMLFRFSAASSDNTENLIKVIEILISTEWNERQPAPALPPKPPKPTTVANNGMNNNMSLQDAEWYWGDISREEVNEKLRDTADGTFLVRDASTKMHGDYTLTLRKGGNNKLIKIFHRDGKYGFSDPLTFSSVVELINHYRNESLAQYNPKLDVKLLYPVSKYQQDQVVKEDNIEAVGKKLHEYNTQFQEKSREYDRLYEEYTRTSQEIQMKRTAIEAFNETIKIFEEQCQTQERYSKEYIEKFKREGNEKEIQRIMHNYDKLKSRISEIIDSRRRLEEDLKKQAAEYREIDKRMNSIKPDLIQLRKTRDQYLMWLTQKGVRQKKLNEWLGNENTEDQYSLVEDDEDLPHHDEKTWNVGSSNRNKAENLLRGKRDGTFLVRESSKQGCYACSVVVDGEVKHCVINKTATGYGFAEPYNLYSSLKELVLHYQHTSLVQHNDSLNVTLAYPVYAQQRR

Structure (SMILES)	IC50 (PI3K (p110α/p85α); [1]) [nM]	IC50 (PI3K (p110α/p85α); [2]) [nM]	IC50 (mTOR; [3]) [nM]	IC50 (mTOR; [4]) [nM]	IC50 (PIM-1; [5]) [nM]	IC50 (PIM-1; [6]) [nM]
COc1ncc2cc1NS(=O)(=O)c1cccc(c1)C(=O)NCCN1CC=C(CC1)c1cnc3ccc-2cn13 [compound 40]	< 100	3	< 100	36	> 1000	
COc1ncc2cc1NS(=O)(=O)c1cccc(c1)C(=O)NCc1cncc(c1)-c1ncnc3ccc-2cc13 [compound 41]	< 100	3	< 100	16	> 1000	
COc1ncc2cc1NS(=O)(=O)c1cccc(c1)C(=O)NCc1cc(ccn1)-c1ncnc3c1SC2=C3 [compound 42]	100 to 1000		> 1000		100 to 1000	
O=C1NCc2cc(ccn2)-c2ncnc3c2SC(=C3)c2cncc(c2)NS(=O)(=O)c2cccc1c2 [compound 43]	< 100	44	> 1000		< 100	41
COc1ncc2cc1NS(=O)(=O)c1cc(c(F)cc1F)C(=O)NCc1cncc(c1)-c1ncnc3c1SC2=C3 [compound 44]	100 to 1000		> 1000		> 1000	
O=C1NCc2cncc(c2)-c2ncnc3c2SC(=C3)c2cnc(O)c(c2)NS(=O)(=O)c2cccc1c2 [compound 45]	> 1000		> 1000		100 to 1000	
COc1ncc2cc1N(C)S(=O)(=O)c1cccc(c1)C(=O)NCc1cncc(c1)-c1ncnc3c1SC2=C3 [compound 46]	> 1000		> 1000		> 1000	
COc1ncc2cc1NS(=O)(=O)c1cccc(c1)C(=O)Nc1cncc(c1)-c1ncnc3c1SC2=C3 [compound 47]	< 100	99	< 100	8.5	> 1000	
COc1ncc2cc1NS(=O)(=O)c1ccc(F)c(c1)C(=O)NCc1cncc(c1)-c1ncnc3c1SC2=C3 [compound 48]	< 100	48	> 1000		< 100	52
O=C1NCc2cncc(c2)-c2ccnc3ccc(cc23)-c2cncc(c2)NS(=O)(=O)c2cccc1c2 [compound 49]	< 100	68	100 to 1000		> 1000	
CC(C)Oc1ncc2cc1NS(=O)(=O)c1cccc(c1)C(=O)NCc1cncc(c1)-c1ncnc3c1SC2=C3 [compound 50]	> 1000		> 1000		> 1000	
COc1ncc2cc1NS(=O)(=O)c1cccc(c1)C(=O)NCCn1cc(cn1)-c1ncnc3c1OC2=C3 [compound 51]	100 to 1000		> 1000		> 1000	
COc1ncc2cc1NS(=O)(=O)c1cc(ccc1F)C(=O)NCc1cncc(c1)-c1ncnc3c1SC2=C3 [compound 52]	100 to 1000		> 1000		100 to 1000	
COc1ncc2cc1NS(=O)(=O)c1cc(cc(C(F)(F)F)c1)C(=O)NCc1cncc(c1)-c1ncnc3c1SC2=C3 [compound 53]	> 1000		> 1000		> 1000	
COc1ncc2cc1NS(=O)(=O)c1cccc(c1)C(=O)NCc1cncc(c1)-c1nc(C)nc3c1SC2=C3 [compound 54]	100 to 1000		> 1000		> 1000	
COc1ncc2cc1NS(=O)(=O)c1cccc(c1)C(=O)NCC1=CC=C(S1)c1ncnc3c1SC2=C3 [compound 55]	100 to 1000		> 1000		< 100	12
COc1ncc2cc1NS(=O)(=O)c1cccc(c1)C(=O)NCc1cncc(c1)-c1ncnc3c1SC2=C3C [compound 56]	< 100	13	100 to 1000		< 100	56
